Laboratory results: ChEMBL document CHEMBL3352703, “Sulfamates of methyl triterpenoates are effective and competitive inhibitors of carbonic anhydrase II” (Eur J Med Chem, 2014)

Key:
Carbonic anhydrase 2 = Carbonic anhydrase 2 (Bos taurus, UniProt P00921); test: Inhibition of bovine erythrocyte carbonic anhydrase 2 using 4-nitrophenyl acetate substrate by photometric assay
[1] = Cytotoxicity against mouse NIH/3T3 cells after 96 hrs by SRB assay; format: cell-based; conditions: NIH3T3, 96 h

Sequence of Carbonic anhydrase 2 (P00921 whole entry): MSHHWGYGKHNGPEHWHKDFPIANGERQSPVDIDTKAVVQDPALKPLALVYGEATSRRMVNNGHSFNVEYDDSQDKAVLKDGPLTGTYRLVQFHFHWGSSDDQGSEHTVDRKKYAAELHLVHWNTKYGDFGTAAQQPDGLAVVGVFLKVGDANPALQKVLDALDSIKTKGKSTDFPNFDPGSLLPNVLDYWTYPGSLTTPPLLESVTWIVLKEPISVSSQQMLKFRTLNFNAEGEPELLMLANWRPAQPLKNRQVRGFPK

| Compound | Ki (Carbonic anhydrase 2) | IC50 [1] |
| --- | --- | --- |
| COC(=O)[C@]12CCC(C)(C)C[C@H]1C1=CC[C@@H]3[C@@]4(C)CC[C@H](O)C(C)(C)[C@@H]4CC[C@@]3(C)[C@]1(C)CC2 [METHYL OLEANOLATE] | > 10 µM | – |
| COC(=O)[C@]12CCC(C)(C)C[C@H]1C1=CC(=O)[C@@H]3[C@@]4(C)CC[C@H](O)C(C)(C)[C@@H]4CC[C@@]3(C)[C@]1(C)CC2 | > 50 µM | – |
| COC(=O)[C@]12CCC(C)(C)C[C@H]1C1=CC(=O)[C@@H]3[C@@]4(C)CC[C@H](OS(N)(=O)=O)C(C)(C)[C@@H]4CC[C@@]3(C)[C@]1(C)CC2 | 1.49 µM | 25.9 µM |
| COC(=O)[C@@]1(C)CC[C@]2(C)CC[C@]3(C)C(=CC[C@@H]4[C@@]5(C)CC[C@H](O)C(C)(C)[C@@H]5CC[C@]43C)[C@@H]2C1 | > 10 µM | – |
| COC(=O)[C@]12CC[C@@H](C)[C@H](C)[C@H]1C1=CC[C@@H]3[C@@]4(C)CC[C@H](O)C(C)(C)[C@@H]4CC[C@@]3(C)[C@]1(C)CC2 [METHYL URSOLATE] | > 10 µM | – |
| COC(=O)[C@@]1(C)CC[C@]2(C)CC[C@]3(C)C(=CC(=O)[C@@H]4[C@@]5(C)CC[C@H](O)C(C)(C)[C@@H]5CC[C@]43C)[C@@H]2C1 | > 10 µM | – |
| COC(=O)[C@]12CC[C@@H](C)[C@H](C)[C@H]1C1=CC(=O)[C@@H]3[C@@]4(C)CC[C@H](OS(N)(=O)=O)C(C)(C)[C@@H]4CC[C@@]3(C)[C@]1(C)CC2 | > 15 µM | 25.9 µM |
| COC(=O)[C@]12CCC(C)(C)C[C@H]1C1=CC[C@@H]3[C@@]4(C)C[C@@H](O)[C@H](OS(N)(=O)=O)C(C)(C)[C@@H]4CC[C@@]3(C)[C@]1(C)CC2 | 1.41 µM | 2.2 µM |
| COC(=O)[C@@]1(C)CC[C@]2(C)CC[C@]3(C)C(=CC(=O)[C@@H]4[C@@]5(C)CC[C@H](OS(N)(=O)=O)C(C)(C)[C@@H]5CC[C@]43C)[C@@H]2C1 | 1.51 µM | > 30 µM |
| COC(=O)[C@]12CC[C@@H](C(C)=O)[C@@H]1[C@H]1CC[C@@H]3[C@@]4(C)CC[C@H](OS(N)(=O)=O)C(C)(C)[C@@H]4CC[C@@]3(C)[C@]1(C)CC2 | 1.74 µM | > 30 µM |
| COC(=O)[C@]12CC[C@@H](C(C)=O)[C@@H]1[C@H]1CC[C@@H]3[C@@]4(C)CC[C@H](O)C(C)(C)[C@@H]4CC[C@@]3(C)[C@]1(C)CC2 | > 5 µM | – |
| C=C(C)[C@@H]1CC[C@]2(C(=O)OC)CC[C@]3(C)[C@H](CC[C@@H]4[C@@]5(C)CC[C@H](O)C(C)(C)[C@@H]5CC[C@]43C)[C@@H]12 [METHYL BETULINATE] | > 50 µM | – |

Further lines, with some results ahead:

| Ki (Carbonic anhydrase 2) | Compound | IC50 [1] |
| --- | --- | --- |
| > 4 µM | COC(=O)[C@@]1(C)CC[C@]2(C)CC[C@]3(C)C(=CC[C@@H]4[C@@]5(C)CC[C@H](OS(N)(=O)=O)C(C)(C)[C@@H]5CC[C@]43C)[C@@H]2C1 | > 30 µM |
| 2.16 µM | C=C(C)[C@@H]1CC[C@]2(C(=O)OC)CC[C@]3(C)[C@H](CC[C@@H]4[C@@]5(C)CC[C@H](OS(N)(=O)=O)C(C)(C)[C@@H]5CC[C@]43C)[C@@H]12 | 9.8 µM |
| 1.11 µM | COC(=O)[C@]12CC[C@@H](C)[C@H](C)[C@H]1C1=CC[C@@H]3[C@@]4(C)CC[C@H](OS(N)(=O)=O)C(C)(C)[C@@H]4CC[C@@]3(C)[C@]1(C)CC2 | 22.8 µM |
| > 50 µM | COC(=O)[C@]12CC[C@@H](C)[C@H](C)[C@H]1C1=CC(=O)[C@@H]3[C@@]4(C)CC[C@H](O)C(C)(C)[C@@H]4CC[C@@]3(C)[C@]1(C)CC2 | – |
| > 20 µM | COC(=O)[C@]12CCC(C)(C)C[C@H]1C1=CC[C@@H]3[C@@]4(C)C[C@@H](OS(N)(=O)=O)[C@H](O)C(C)(C)[C@@H]4CC[C@@]3(C)[C@]1(C)CC2 | 12.6 µM |
| 0.308 µM | COC(=O)[C@]12CCC(C)(C)C[C@H]1C1=CC[C@@H]3[C@@]4(C)CC[C@H](OS(N)(=O)=O)C(C)(C)[C@@H]4CC[C@@]3(C)[C@]1(C)CC2 | 12.8 µM |
| > 25 µM | COC(=O)[C@]12CCC(C)(C)C[C@H]1C1=CC[C@@H]3[C@@]4(C)C[C@@H](O)[C@H](O)C(C)(C)[C@@H]4CC[C@@]3(C)[C@]1(C)CC2 [MASLINIC ACID METHYL ESTER] | – |
